System: African Green monkeys
Experiment: IOP after intravitreal injection in African Green monkeys, compared with PBS in the fellow eye
Assay type: in vivo, African Green monkey
Conditions: for animals responding with a reduction in IOP of ≥30%: 4 animals
Protocol: Eight African Green monkeys were screened to identify 4 animals with high-normal IOP. Animals were anesthetized with ketamine 10 mg/kg and Xylazine 0.5 mg/kg. Bimatoprost acid 100 ng in 50 μl was injected intravitreally in one eye through a 30-gauge syringe using a shelved technique, and 50 μl of phosphate buffered saline (PBS) was injected into the fellow eye as a concurrent control on days 0, 1, 2 at 8:30 pm. The bimatoprost acid dose was escalated to 200 ng in 100 μl, with the same volume of PBS given to the fellow eye, on days 3 (8:30 pm) and 4 (5:30 pm). IOP was measured with a Tonovet tonometer at 8:30 am, 11:30 am and 8:30 pm on day 1; 8:30 am, 11:30 am and 5:30 pm on day 4; and at 8:30 am on days 2, 3 and 5. The person measuring the IOP was masked to treatment assignment. Slit lamp exams were performed on day 0, 1 and 5. OCTs were performed at baseline and day 5.

Structure (SMILES): O=C(O)CCC/C=C\C[C@@H]1[C@@H](/C=C/[C@@H](O)CCc2ccccc2)[C@H](O)C[C@@H]1O [bimatoprost acid]
- animals responding with a reduction in IOP of ≥30% (100 ng dose intravitreal): One of four
- reduction in IOP compared with the fellow eye (100 ng in 50 μl intravitreal, days 0, 1, 2, animal B392, at 1 timepoint): ≥ 30%
- animals responding with a reduction in IOP of ≥30% (200 ng dose intravitreal): Three of four
- IOP reduced in the treated eye compared with the fellow eye receiving PBS (200 ng dose, animal B392, day 5): 52%
- reduction in IOP compared with the fellow eye (200 ng in 100 μl intravitreal, days 3 and 4, responding animals, at 1 or more timepoints): ≥ 30%
- IOP response (animal B300, 100 ng and 200 ng doses): did not respond to either dose
